What all share (type): in vivo
The test system of experiment [1] is Beet Armyworm (Spodoptera exigua, LAPHEG). The experiment is described as follows: Bioassay on Beet Armyworm (BAW), 128-well diet tray assay. In short, it runs like this: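 Percent mortality, averaged across eight replicate wells, was scored after five to seven days at 25° C. under a 14:10 light-dark cycle. Each well's diet carried 50 μg/cm^2 of the dried test molecule and held one to five second instar larvae.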

Experiment [2] deals with Yellow Fever Mosquito (Aedes aegypti, AEDSAE). Put plainly: Bioassay on Yellow Fever Mosquito (YFM), 96-well plate larval assay. The following applies: for YFM (Biological Results, rating): Species YFM (Yellow Fever Mosquito); for YFM rating: Yellow Fever Mosquito, 96-well plate larval assay. In short, it runs like this: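 Aedes aegypti larvae (about 1 day old) in liver-powder water were added to plates dispensed from DMSO master plates (4000 ppm stock) diluted with 90:10 water/acetone; six replicate plates per master. Lidded plates were held at room temperature for 3 days, then each well was scored for mortality.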

For experiment [3], the system named is Cabbage Looper (Trichoplusia ni, TRIPNI). The experiment is described as follows: Bioassay on Cabbage Looper (CL), 128-well diet tray assay. To be noted: Trichoplusia ni. In outline: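 Mortality of second instar larvae exposed to diet coated with 50 μg/cm^2 compound (acetone-water 90:10 vehicle, dried); 25° C., 5–7 days.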
Where [4] appears, read: Species BAW (Beet Armyworm), read-out: BAW (Biological Results, rating).
Setting [5] is: Species CL (Cabbage Looper), read-out: CL (Biological Results, rating).
[6] abbreviates: Beet Armyworm, 128-well diet tray assay, read-out: BAW rating.
The mark [7] stands for this setting: Cabbage Looper, 128-well diet tray assay, read-out: CL rating.

Where two headings read alike, the source gives them in different places.

Consider `O=C(Nc1ccc(F)cc1F)c1cc(NC(=O)[C@H]2[C@H](c3ccc(F)c(F)c3)C2(Cl)Cl)ccc1Cl` (relative stereo) [F346, 2-Chloro-5-(trans)-(2,2-dichloro-3-(3,4-difluorophenyl)cyclopropane-1-carboxamido)-N-(2,4-difluorophenyl)benzamide], for which the pest or weed control at 50 µg/cm2 in experiment [1] (setting [4]) and in experiment [3] (setting [5]) was 50 to 100% in each case. The “YFM (Biological Results, rating)” value in experiment [2] is given as “A (80-100)”.
`O=C(Nc1ncc(F)cc1F)c1cc(NC(=O)[C@H]2[C@H](c3ccc(C(F)F)c(Cl)c3)C2(Cl)Cl)ccc1Cl` (relative stereo) [F588, 2-Chloro-5-(trans-2,2-dichloro-3-(3-chloro-4-(difluoromethyl)phenyl)cyclopropane-1-carboxamido)-N-(3,5-difluoropyridin-2-yl)benzamide]: the pest or weed control at 50 µg/cm2 in experiment [1] (setting [6]) and in experiment [3] (setting [7]) was 50 to 100% throughout. For the same compound, the YFM rating entry in experiment [2] is “A (80-100)”.
Consider `Cc1cc(N)ccc1NC(=O)c1cc(NC(=O)[C@H]2[C@H](c3ccc(Cl)c(Cl)c3)C2(Cl)Cl)ccc1Cl` [F285, N-(4-Amino-2-methylphenyl)-2-chloro-5-((1R,3R)-2,2-dichloro-3-(3,4-dichlorophenyl)cyclopropane-1-carboxamido)benzamide], for which the pest or weed control at 50 µg/cm2 in experiment [1] (setting [4]) and in experiment [3] (setting [5]) was 50 to 100% each time. Also, the “YFM (Biological Results, rating)” value in experiment [2] is “A (80-100)”.
On to `N#Cc1cc(F)ccc1NC(=O)c1cccc(NC(=O)[C@H]2[C@H](c3ccc(Cl)c(Cl)c3)C2(Cl)Cl)c1` (relative stereo) [F268, trans-N-(2-Cyano-4-fluorophenyl)-3-(2,2-dichloro-3-(3,4-dichlorophenyl)cyclopropane-1-carboxamido)benzamide], for which the pest or weed control at 50 µg/cm2 in experiment [1] (setting [4]) and in experiment [3] (setting [5]) was 50 to 100% each time. Further, the “YFM (Biological Results, rating)” value in experiment [2] is listed as “A (80-100)”.
For the compound `CN(C(=O)CC(F)(F)F)c1ccc(NC(=O)c2cc(NC(=O)[C@H]3[C@H](c4cc(Cl)cc(Cl)c4)C3(Cl)Cl)ccc2Cl)cc1` (relative stereo) [PF30, trans-2-Chloro-5-(2,2-dichloro-3-(3,5-dichlorophenyl)cyclopropane-1-carboxamido)-N-(4-(3,3,3-trifluoro-N-methylpropanamido)phenyl)benzamide], the pest or weed control at 50 µg/cm2 in experiment [1] (setting [6]) and in experiment [3] (setting [7]) was 50 to 100% in each case. Besides, the YFM rating entry in experiment [2] was “B (More than 0-Less than 80)”.
In the case of `O=C(Nc1ccc(SCC(F)(F)F)cc1)c1cc(NC(=O)[C@H]2[C@H](c3cc(Cl)cc(Cl)c3)C2(Cl)Cl)ccc1Cl` (relative stereo) [PF10, trans-2-Chloro-5-(2,2-dichloro-3-(3,5-dichlorophenyl)cyclopropane-1-carboxamido)-N-(4-((2,2,2-trifluoroethyl)thio)phenyl)benzamide], the pest or weed control at 50 µg/cm2 in experiment [1] (setting [6]) and in experiment [3] (setting [7]) was 50 to 100% each time. For the same compound, in experiment [2], the YFM rating entry is “B (More than 0-Less than 80)”.
Regarding `CN(C(=O)c1cc(NC(=O)[C@@H]2[C@@H](c3cc(Cl)cc(Cl)c3)C2(Cl)Cl)ccc1Cl)c1ccc(F)cc1` [F170, 2-Chloro-5-((1S,3S)-2,2-dichloro-3-(3,5-dichlorophenyl)cyclopropane-1-carboxamido)-N-(4-fluorophenyl)-N-methylbenzamide], the pest or weed control at 50 µg/cm2 in experiment [1] (setting [4]) and in experiment [3] (setting [5]) was 50 to 100% in each case. For the same compound, the “YFM (Biological Results, rating)” value in experiment [2] was “A (80-100)”.
As for `O=C(Nc1ccnc(Cl)c1)c1cc(NC(=O)[C@H]2[C@H](c3ccc(Cl)c(Cl)c3)C2(Cl)Cl)ccc1Cl` [F369, 2-Chloro-N-(2-chloropyridin-4-yl)-5-((1R,3R)-2,2-dichloro-3-(3,4-dichlorophenyl)cyclopropane-1-carboxamido)benzamide], the pest or weed control at 50 µg/cm2 in experiment [1] (setting [4]) and in experiment [3] (setting [5]) was 50 to 100% in each case. The “YFM (Biological Results, rating)” value in experiment [2] is recorded as “A (80-100)”.
As to `O=C(Nc1nnc(Br)s1)c1cc(NC(=O)C2C(c3cc(Cl)cc(Cl)c3)C2(Cl)Cl)ccc1Cl` (stereo not drawn) [PF133, trans-N-(5-bromo-1,3,4-thiadiazol-2-yl-2-chloro-5-(2,2-dichloro-3-(3,5-dichlorophenyl)cyclopropane-1-carboxamido)benzamide], the pest or weed control at 50 µg/cm2 in experiment [1] (setting [6]) and in experiment [3] (setting [7]) was 50 to 100% in each case. Besides, the YFM rating result in experiment [2] is reported as “A (80-100)”.
As to `Cl.Nc1ccc(NC(=O)c2cc(NC(=O)[C@H]3[C@H](c4cc(Cl)cc(Cl)c4)C3(Cl)Cl)ccc2Cl)cc1` (relative stereo) [PF21, trans-N-(4-aminophenyl)-2-chloro-5-(2,2-dichloro-3-(3,5-dichlorophenyl)cyclopropane-1-carboxamido)benzamide hydrochloride], the pest or weed control at 50 µg/cm2 in experiment [1] (setting [6]) and in experiment [3] (setting [7]) was 50 to 100% each time. Further, the YFM rating entry in experiment [2] is “A (80-100)”.
On to `CN1C(=O)CCc2cc(NC(=O)c3cc(NC(=O)[C@H]4[C@H](c5cc(Cl)cc(Cl)c5)C4(Cl)Cl)ccc3Cl)ccc21` (relative stereo) [F490, 2-chloro-5-(trans)-(2,2-dichloro-3-(3,5-dichlorophenyl)cyclopropane-1-carboxamido)-N-(1-methyl-2-oxo-1,2,3,4-tetrahydroquinolin-6-yl)benzamide], for which the pest or weed control at 50 µg/cm2 in experiment [1] (setting [6]) and in experiment [3] (setting [7]) was 50 to 100% throughout. The YFM rating entry in experiment [2] is “A (80-100)”.
For `O=C(Nc1ccc(NC(=O)C(F)(F)F)cc1)c1cc(NC(=O)[C@H]2[C@H](c3cc(Cl)cc(Cl)c3)C2(Cl)Cl)ccc1Cl` (relative stereo) [PF24, trans-2-chloro-5-(2,2-dichloro-3-(3,5-dichlorophenyl)cyclopropane-1-carboxamido)-N-(4-(2,2,2-trifluoroacetamido)phenyl)benzamide], the pest or weed control at 50 µg/cm2 in experiment [1] (setting [6]) and in experiment [3] (setting [7]) was 50 to 100% in each case. In experiment [2], the YFM rating entry is “A (80-100)”.
Take `O=C(Nc1c(F)cccc1F)c1cc(NC(=O)[C@H]2[C@H](c3cc(Cl)cc(Br)c3)C2(Cl)Cl)ccc1Cl` (relative stereo) [F164, trans-5-(3-(3-Bromo-5-chlorophenyl)-2,2-dichlorocyclopropane-1-carboxamido)-2-chloro-N-(2,6-difluorophenyl)benzamide]: the pest or weed control at 50 µg/cm2 in experiment [1] (setting [4]) and in experiment [3] (setting [5]) was 50 to 100% throughout. In experiment [2], the “YFM (Biological Results, rating)” value was “A (80-100)”.
For `O=C(Nc1ccc(-n2cccn2)cc1)c1cc(NC(=O)[C@H]2[C@H](c3cc(Cl)cc(Cl)c3)C2(Cl)Cl)ccc1Cl` (relative stereo) [F440, trans-N-(4-(1H-Pyrazol-1-yl)phenyl)-2-chloro-5-(2,2-dichloro-3-(3,5-dichlorophenyl)cyclopropanecarboxamido)benzamide], the pest or weed control at 50 µg/cm2 in experiment [1] (setting [6]) and in experiment [3] (setting [7]) was 50 to 100% throughout. Also, in experiment [2], the YFM rating result is “A (80-100)”.
`Cc1cc(F)ccc1N(C)C(=O)c1cc(NC(=O)[C@H]2[C@H](c3cc(Cl)cc(Cl)c3)C2(Cl)Cl)ccc1Cl` (relative stereo) [PF49, trans-2-Chloro-5-(2,2-dichloro-3-(3,5-dichlorophenyl)cyclopropane-1-carboxamido)-N-(4-fluoro-2-methylphenyl)-N-methylbenzamide]: the pest or weed control at 50 µg/cm2 in experiment [1] (setting [6]) and in experiment [3] (setting [7]) was 50 to 100% in each case. Besides, the YFM rating entry in experiment [2] was “B (More than 0-Less than 80)”.

For the origin of these results see US10219516B2, “Molecules having pesticidal utility, and intermediates, compositions, and processes, related thereto” (priority 2015, dated 2019).
